Test results taken from publication PMC10492782, “Exploiting the aggregation propensity of beta-lactamases to design inhibitors that induce enzyme misfolding” (Nature Communications, 2023).

How the values were obtained:
[1] = tested on: clinical isolates of E. coli containing TEM or SHV enzymes; assay: MIC of ampicillin with or without 30 µg/mL TEM3.2 in clinical isolates; type: cell-based, Escherichia coli; conditions: 30 μg/mL TEM3.2; 14 out of 16 isolates
Protocol: Determination of MIC values was performed using the broth microdilution method according to the EUCAST guideline, which was performed in 96-well polystyrene flat-bottom microtiter plates (BD Biosciences). Briefly, a single colony was inoculated into 5 mL Difco™ Mueller–Hinton Broth (BD Biosciences Ref 275730) and grown to the end-exponential growth phase in a shaking incubator at 37 °C. Cultures were subsequently diluted to a MacFarland (0.5 optical density) to reach 10^6 CFU/mL in fresh MHB medium. 50 µl of different concentrations of peptides ranging from 128 to 2 µg/mL were serially diluted to the sterile 96-well plate in MHB. 50 µL of the diluted bacteria in MHB were next pipetted into 96-well plates to reach the final volume of 100 µL. The bacteria grown with the maximum concentration of carrier and medium were considered positive and negative controls, respectively. The plates were statically incubated overnight at 37 °C to allow bacterial growth. OD was measured at 590 nm using a multipurpose ultraviolet–visible plate reader, and the absorbance of the bacterial growth was measured using an absorbance reader.

[2] = tested on: primary Human Umbilical Vein Endothelial Cells (HUVEC); conditions: 24 h, 400 to 12.5 µg/mL
Protocol: The Cell Titer Blue assay was performed to evaluate the cell viability according to the instructions of the manufacturer (Promega, USA). The peptide treatments were done in DMEM medium without serum. Briefly, cells were seeded to approximately 20,000 mammalian cells per well in a 96-well flat-bottom plate (BD Biosciences 353075) and incubated at 37 °C with 5% CO2 and 90% humidity. Peptides were diluted in cell medium, and cells were treated for 24 h. 20 μL of the CellTiter Blue reagent was added to each well and the plate was incubated for 1 h at 37 °C. The fluorescence was measured at 590 nm by exciting at 560 nm with a ClarioStar plate reader (BMG Labtech, Germany).

E. coli SHV11 = assay: Checkerboard assay (FICI); type: cell-based, Escherichia coli; conditions: strain containing SHV-11, FICI below 0.5 = synergy
Protocol: To quantify the synergy between these four peptides and penicillin G, we performed a so-called checkerboard assay, which allows us to compare the activity of two test compounds co-incubated (here peptide and a beta-lactam antibiotic), to their individual activities in isolation. […] We evaluated the synergy of the peptides with penicillin G in clinical E. coli isolates carrying the TEM (Fig. 3D) or SHV enzymes (Fig. 3E). […] The list of strains included some that harbored only TEM or SHV, but others contained additional Ambler Class A (CTX-M or OXA) or Class B (VIM and NDM) beta-lactamases.
For the analysis of synergy between the peptides and other antibiotics, a checkerboard assay was performed. Based on the MICs of the selected peptides, a checkerboard assay was designed to define their FICIs (Fractional Inhibitory Concentration Index) in combinations against different clinical isolates[53],[54]. Briefly, a total volume of 100 μL of Mueller–Hinton broth was distributed into each well of the 96-well plates. […] FICI is calculated as the sum of the individual fractional inhibitory concentrations (FICs) for each drug (where MIC A and MIC B denote the MIC of each drug alone, and MIC AA+B and MIC BA+B denote the concentrations of A and B in the drug combination). […]

With Ac-RLTAFLHNRRPRLTAFLRQRR-NH2 [TEM3.2] as the substance, how does the “clinical isolates containing TEM or SHV sensitized to Ampicillin” value [1] read?
Its value is 87%.

And the “cytotoxicity, Cell Titer Blue (in words)” value [2]?
The value was “not cytotoxic”.

And the “synergy with penicillin G (in words)” value (E. coli SHV11)?
The value was “showed synergy in both strains”.
